Source: US4176189A, “Insecticidal and acaricidal hydantoin N-methylol esters” (Sumitomo Chemical Company, Limited, priority 1977, dated 1979)
Like-named read-outs stand apart in the source and are kept apart here.

Columns and labels:
Type in all cases: in vivo
[1] = tested on: housefly female adults (Musca domestica); experiment: Housefly female adults on treated filter paper in polyethylene cup, mortality after 48 hours (Experimental Example 1)
Protocol: Ten percent emulsifiable concentrates were prepared as in the Preparation example 3.
At the bottom of a polyethylene cup of 5.5 cm in diameter was placed a filter paper of the same size. 0.75 Ml of a 200-fold aqueous dilute solution of each emulsifiable concentrate (corresponding to 500 ppm) was dropped on the filter paper, and 30 mg of sucrose as a food was uniformly placed. Ten housefly female adults (Musca domestica) were liberated in the cup which was then covered with a lid. After 48 hours, the dead and alive were examined to obtain mortality (4 replications).

[2] = tested on: adult German cockroaches (Blattella germanica); experiment: Flushing out of German cockroaches from shelter (Experimental Example 8); conditions: 0.7 ml of 0.1% oil spray
Protocol: Ten adult German cockroaches (Blattella germanica) were liberated in a plywood-made trigonal prism like shelter with diet and water. The shelter containing cockroaches was made stand opening upward in a glass chamber (70 cm)^3, and 0.7 ml of 0.1% oil spray of each compound was applied to the chamber. The number of flushed out insects was counted with the lapse of time.

[3] = tested on: housefly adults (Musca domestica); experiment: Oil spray in (70 cm)^3 glass chamber, housefly adults, KT50 and mortality (Experimental Example 2); conditions: for mortality at 0.1 %: Musca domestica
Protocol: (§1) 0.1 Part of each of the present compounds was dissolved in kerosene and made up to 100 parts with kerosene. Thus, the oil spray of each compound was obtained. Ten northern house mosquito female adults (Culex pipiens pallens) and 10 housefly adults (Musca domestica) were liberated in a (70 cm)^3 glass chamber. 0.7 ml of the oil spray was applied and the number of knocked down insects was counted with the lapse of time. The value of KT50 was obtained from the mean knock-down ratio of three replications according to Finney's graphic method. After 10 minutes, the knocked down insects were collected and transferred to a recovery container and fed with a 5% sugar solution. After 24 hours, the dead and alive were examined.

[4] = tested on: Carmine mite (Tetranychus cinnabarinus); experiment: Carmine mite on potted kidney bean, damage after 10 days (Experimental Example 12); conditions: 200-fold aqueous dilution of emulsifiable concentrate of Preparation example 3, 10 ml/pot
Protocol: Carmine mite female adults (Tetranychus cinnabarinus) were made parasitic on leaves of the potted kidney bean (primordial leaf stage) which had elapsed 9 days after sowing, at a rate of 10-15/leaf, and bred at 27° C. for a week in a constant temperature room. […] At this time, a 200-fold aqueous dilute solution of each of the emulsifiable concentrates formulated from the present compounds (2), (6), (8), (9) and (13) according to Preparation example 3 was sprayed at a rate of 10 ml/pot by means of a turn table.

[5] = tested on: northern house mosquito female adults (Culex pipiens pallens); experiment: Oil spray in (70 cm)^3 glass chamber, northern house mosquito female adults, KT50 and mortality (Experimental Example 2); conditions: for mortality at 0.1 %: Culex pipiens
Protocol: as §1

[6] = tested on: northern house mosquito female adults (Culex pipiens pallens); experiment: Oil spray in (70 cm)^3 glass chamber, knock down of mosquitoes at 10 minutes (Experimental Example 3); conditions: oil sprays of Preparation example 1 (0.2 part in 100), 0.7 ml, 10 minutes after spraying, read-out: KD%
From the text: Ten northern house mosquito female adults (Culex pipiens pallens) were liberated in a (70 cm)^3 glass chamber.

[7] = housefly adult, 0.1% oil spray, 0.7 ml
[8] = northern house mosquito female adult, 0.1% oil spray, 0.7 ml
[9] = 200-fold aqueous dilution of emulsifiable concentrate (500 ppm), 48 hours, housefly female adults, read-out: Mortality

Row | SMILES | mortality at 500 µg/mL ([1]; 48 h) [%] | Flushing out ([2]; 38") [%] | Flushing out ([2]; 75") [%] | Flushing out ([2]; 150") [%] | Flushing out ([2]; 300") [%] | Flushing out ([2]; 600") [%] | mortality at 0.1 % ([3]; 24 h) [%] | KT50 [3, 7] [s] | damage of kidney bean by the mites [4] | mortality at 0.1 % ([5]; 24 h) [%] | KT50 [5, 8] [s] | mortality at 500 µg/mL [1, 9] [%] | mortality at 0.1 % ([3]; housefly adult, 0.1% oil spray, 0.7 ml, after 24 hours, read-out: Mortality) [%] | mortality at 0.1 % ([5]; northern house mosquito female adult, 0.1% oil spray, 0.7 ml, after 24 hours, read-out: Mortality) [%] | pest or weed control at 0.2 % [6] [%]
1 | C#CCN1CC(=O)N(COC(=O)[C@@H]2[C@@H](C=C(F)F)C2(C)C)C1=O [Present compound (6)] | 100 | 47 | 74 | 79 | 79 | 100 | 70 | 46 | hardly any damage was observed | 100 | 19 |  |  |  | 
2 | C#CCN1CC(=O)N(COC(=O)C2C(C)(C)C2(C)C)C1=O [Present compound (9), 1-Propargyl-3-hydantoinylmethyl 2,2,3,3-tetramethylcyclopropanecarboxylate] |  | 15 | 55 | 60 | 70 | 80 |  | 150 | hardly any damage was observed |  | 35 | 100 | 20 | 95 | 
3 | C#CCN1CC(=O)N(COC(=O)[C@@H]2[C@@H](C=C3CCCC3)C2(C)C)C1=O (relative stereo) [Present compound (8), 1-Propargyl-3-hydantoinylmethyl 2,2-dimethyl-3-cyclopentylidenemethylcyclopropanecarboxylate] | 100 |  |  |  |  |  | 25 | 150 | hardly any damage was observed | 95 | 75 |  |  |  | 
4 | C=CCN1CC(=O)N(COC(=O)C2C(C=C(Cl)Cl)C2(C)C)C1=O (stereo not shown) [Present compound (2), 1-Allyl-3-hydantoinylmethyl 2,2-dimethyl-3-(2,2-dichlorovinyl)-cyclopropanecarboxylate] | 100 |  |  |  |  |  |  |  | hardly any damage was observed |  |  |  |  |  | 100
5 | C#CCN1CC(=O)N(COC(=O)C(c2ccc(Cl)cc2)C(C)C)C1=O (stereo not drawn) [Present compound (13), 1-Propargyl-3-hydantoinylmethyl α-(4-chlorophenyl)isovalerate] |  |  |  |  |  |  |  |  | hardly any damage was observed |  |  | 100 |  |  | 90
